Source: patent US20140050779A1, “[…]-2 INHIBITORS AND USES THEREOF” (SINGAPORE HEALTH SERVICES PTE. LTD., priority 2011, published 2014)
Entries after “also recorded” stand apart in the source; their conditions may differ.

How the values were obtained:
Type in all cases: cell-based
[1] = system: TG-2; assay: TG-2 colorimetric microassay (transamidase activity) in lysate of treated human scleral fibroblasts; conditions: for transamidase activity of endogenous cellular TG-2: human scleral fibroblasts, 0.1, 1, 10 and 100 μM for 5 days, concentration-dependent
Method: (§1) All cells used in examples described herein were between passages 2-4. Passaged cells were plated at a concentration of 2×10^5/mL into 6 well plates containing DMEM with 10% FBS. […] Old media was removed from wells and 1 mL of drug was added with fresh full medium and incubated at 37° C. Fresh drugs were replaced daily consecutively for the next 5 days to avoid oxidation. The drugs/media was removed and wells were washed twice with 1×PBS. 200 μl of RIPA lysis buffer was added per well and incubated for 5 minutes and cells were scrapped into an eppendorf tube. The cells were stored at −20° C. until sonication. The cells were sonicated on ice thrice at 20% output power for 5 seconds each time and rested 1 minute in between each turn. Cell debris was spun down at 12000 rpm for 20 minutes. The supernatant was poured into a new eppendorf tube and cell concentrations were determined using the Dc Protein assay Kit (Bio-Rad, MA). Passaged cells were plated at a concentration of 1×10^5 into 6 well plates containing DMEM with 10% FBS. […] Freshly prepared muscarinic agents' at base line, 0.1, 1, 10 and 100 μM concentrations were added for 5 days (Table 2). The culture medium was removed and fresh medium containing the same muscarinic drug added every day to avoid drug changes such as atropine oxidation. Cell lysate was collected for relative quantitative (q) PCR and protein analysis at day 5.
(§2) This assay was designed to assess the cross-linking activity of TG-2 between two proteins. TG activity was measured with TG-2 colorimetric Microassay kit (TG-Covtest, Covalab, Cambridge, UK). 150-200 μg of total protein was used per well for the TG-2 assay. Transglutaminase standards (Sigma) were used as a positive control. EDTA was used to inhibit the enzyme activity as a negative control.
(§3) The approximate volume of reagents to use, the wavelengths to use to read absorbance, the incubation times were determined from a previous study that have carried out experiments with similar principles as described in Perez Alea M, Kitamura M, Martin G, Thomas V, Hitomi K, El Alaoui S., “Development of an isoenzyme-specific colorimetric assay for tissue transglutaminase 2 cross-linking activity”, Anal Biochem. 2009 Jun. 15; 389(2):150-6, Epub 2009 March 24. All reagents used and protein coated plates were part of the kit. Biotin cadaverine was reconstituted with 6 ml of deionized water and 90 μl was added into each well of the 96 well plate that comes coated with CBZ-GLN-GLY. The rest of the steps were followed as in the manufacturer's instructions and finally absorbance was read at 450 nm using a microplate reader (TECAN, Austria). All incubations were performed with gentle shaking on a laboratory orbital shaker.
(§4) The TG-2 colorimetric assay serves as a high throughput and quantitative assay to assess transamidase activity. […] In vivo studies with these drugs were also conducted to determine the effect on myopia development (see FIGS. 14 and 15).

[2] = system: TG-2; assay: TG-2 colorimetric microassay (transamidase activity) in lysate of treated mouse scleral fibroblasts; conditions: for transamidase activity of endogenous cellular TG-2: mouse scleral fibroblasts, 0.1, 1, 10 and 100 μM for 5 days, concentration-dependent
Method: as §1, §2, §3, §4

[3] = system: TG-2; assay: Western blot of TG proteins in mouse scleral fibroblasts after muscarinic agents
Method: (§5) All cells used in examples described herein were between passages 2-4. Passaged cells were plated at a concentration of 2×10^5/mL into 6 well plates containing DMEM with 10% FBS. The cells were seen to attach to the bottom of the culture wells after 4 hours. Old media was removed from wells and 1 mL of drug was added with fresh full medium and incubated at 37° C. Fresh drugs were replaced daily consecutively for the next 5 days to avoid oxidation. The drugs/media was removed and wells were washed twice with 1×PBS. 200 μl of RIPA lysis buffer was added per well and incubated for 5 minutes and cells were scrapped into an eppendorf tube. The cells were stored at −20° C. until sonication. The cells were sonicated on ice thrice at 20% output power for 5 seconds each time and rested 1 minute in between each turn. Cell debris was spun down at 12000 rpm for 20 minutes. The supernatant was poured into a new eppendorf tube and cell concentrations were determined using the Dc Protein assay Kit (Bio-Rad, MA). Passaged cells were plated at a concentration of 1×10^5 into 6 well plates containing DMEM with 10% FBS. The cells were seen to attach to the bottom of the culture wells after 4 hours. Freshly prepared muscarinic agents' at base line, 0.1, 1, 10 and 100 μM concentrations were added for 5 days (Table 2). The culture medium was removed and fresh medium containing the same muscarinic drug added every day to avoid drug changes such as atropine oxidation. Cell lysate was collected for relative quantitative (q) PCR and protein analysis at day 5.
(§6) The cells were lysed by sonification in 1×RIPA lysis buffer (santa cruz biotechnology, Sc-24948) with 10 μl PMSF solution, 10 μl sodium orthovanadate solution and 20 μl protease inhibitor cocktail solution. After centrifugation at 20,000×g at 4° C. for 20 minutes, and the supernatant collected. The protein content in the supernatants was measured using the DC Protein Assay kit (Bio-Rad, MA) following the manufacturer's instructions. Samples were stored at −80° C. until assayed.
(§7) The mouse and human scleral fibroblasts were treated with atropine or carbachol at 0.01, 0.1, 1, 5 and 10 μM concentrations for 5 days. Following 5 days of treatment, the total cellular protein was extracted from these cells and TG proteins detected via Western blot analysis.
Human and, mouse scleral fibroblast proteins in the supernatant were separated by SDS-PAGE, transferred to nitrocellulose membranes, blocked in 5% BSA in TBST (10 mM Tris-HCl [pH 8.0], 150 mM NaCl, and […] Tween-20) for 2 hours at room temperature, and incubated with the same anti-TG-2 antibody described herein at a dilution of 1:1000 and anti β-tubulin antibodies used as a positive control, for 1 hour at room temperature. The membranes were washed 3 times in TBST and incubated with HRP-conjugated secondary antibody (Chemicon International) at a dilution of 1:2500 for 1 hour at room temperature. Immunoreactive bands were visualized using the enhanced chemiluminescence method (GE Healthcare, Buckinghamshire, UK). The membrane was wrapped in plastic and placed against an X-ray film to expose for an appropriate length of time (30 seconds-5 minutes).

[4] = system: TG-2; assay: Western blot of TG proteins in human scleral fibroblasts after muscarinic agents
Method: as §5, §6, §7
Human and, mouse scleral fibroblast proteins in the supernatant were separated by SDS-PAGE, transferred to nitrocellulose membranes, blocked in 5% BSA in TBST (10 mM Tris-HCl [pH 8.0], 150 mM NaCl, and […] Tween-20) for 2 hours at room temperature, and incubated with the same anti-TG-2 antibody described herein at a dilution of 1:1000 and anti β-tubulin antibodies used as a positive control, for 1 hour at room temperature. […]

[5] = specific muscarinic antagonists
[6] = 0.01-10 μM for 5 days, Western blot

| Structure (SMILES) | transamidase activity of endogenous cellular TG-2 [1] | TG-2 activity, strongest reduction among the antagonists ([1]; human scleral fibroblasts, all concentrations) | TG-2 activity as compared to atropine ([1]; human scleral fibroblasts, himbacine 0.1, 1, 10 & 100 μM, darifenacin 0.1, 1 & 10 μM) | TG-2 activity, strongest reduction among the antagonists ([2]; mouse scleral fibroblasts) | transamidase activity of endogenous cellular TG-2 [2] | TG2 activity as compared to atropine ([2]; mouse scleral fibroblasts, high concentration (100 μM)) | TG-2 protein level [3, 5] | TG-2 protein level [4, 5] | TG-2 activity, strongest reduction ([2]; mouse scleral fibroblasts, 0.1 μM, saturated at 1, 10 and 100 μM) | TG-2 protein level [3, 6] | TG-2 protein level [4, 6] |
| --- | --- | --- | --- | --- | --- | --- | --- | --- | --- | --- | --- |
| C[C@@H]1OC(=O)[C@H]2C[C@H]3CCCC[C@@H]3[C@@H](/C=C/[C@H]3CCC[C@H](C)N3C)[C@@H]12 [himbacine] | reduced | most significantly reduced | more significantly reduced | most significantly reduced | reduced | most significantly reduced | significantly reduced | significantly reduced | – | – | – |
| CN1[C@@H]2CC[C@H]1C[C@@H](OC(=O)C(CO)c1ccccc1)C2 (stereo partly shown) [atropine] | reduced | – | – | – | reduced | – | – | – | most significantly reduced | reduced; also recorded: reduction | reduced |
